Data reported in publication PMC7031696 (Cell chemical biology, 2019).

Tested on: 3D7-MR4 trophozoite parasite-infected RBCs
Assay: Metabolomic profiling (hydrophilic metabolite changes, UHPLC-MS)
Type: cell-based, Plasmodium falciparum

Ferroquine [reference compound]
changes within the set of metabolites detected (low fold change group) (10 × IC50^72h, 2.5 hr, trophozoites): did not induce major changes
Log2(fold changes) 1_3-Bisphosphoglyceric acid (metabolite 1_3-Bisphosphoglyceric acid, log2 fold change): 0.0000
Log2(fold changes) 2-Hydroxy-2-methylbutanedioic acid (metabolite 2-Hydroxy-2-methylbutanedioic acid, log2 fold change): -0.0247
Log2(fold changes) 2-Isopropylmalic acid (metabolite 2-Isopropylmalic acid, log2 fold change): 0.0000
Log2(fold changes) 2-dehydro-D-gluconate (metabolite 2-dehydro-D-gluconate, log2 fold change): -0.3147
Log2(fold changes) 2-oxo-4-methylthiobutanoate (metabolite 2-oxo-4-methylthiobutanoate, log2 fold change): 0.0000
Log2(fold changes) 2_3-Diphosphoglyceric acid (metabolite 2_3-Diphosphoglyceric acid, log2 fold change): -0.0833
Log2(fold changes) 3-phosphoglycerate (metabolite 3-phosphoglycerate, log2 fold change): 0.2090
Log2(fold changes) 3-phosphoserine (metabolite 3-phosphoserine, log2 fold change): 0.0000
Log2(fold changes) 4-Pyridoxic acid (metabolite 4-Pyridoxic acid, log2 fold change): 0.0751
Log2(fold changes) 4-aminobutyrate (metabolite 4-aminobutyrate, log2 fold change): 0.0759
Log2(fold changes) 4-phosphopantetheine (metabolite 4-phosphopantetheine, log2 fold change): 0.0000
Log2(fold changes) 4-phosphopantothenate (metabolite 4-phosphopantothenate, log2 fold change): 0.0213
Log2(fold changes) 5-aminopentanoic acid (metabolite 5-aminopentanoic acid, log2 fold change): 0.0000
Log2(fold changes) 5-methyl-THF (metabolite 5-methyl-THF, log2 fold change): 0.0000
Log2(fold changes) 5-phosphoribosyl-1-pyrophosphate (metabolite 5-phosphoribosyl-1-pyrophosphate, log2 fold change): 0.0000
Log2(fold changes) 6-phospho-D-gluconate (metabolite 6-phospho-D-gluconate, log2 fold change): 0.0000
Log2(fold changes) ADP-D-glucose (metabolite ADP-D-glucose, log2 fold change): 0.0625
Log2(fold changes) Acetyl-glycine (metabolite Acetyl-glycine, log2 fold change): 0.0000
Log2(fold changes) Acetyllysine (metabolite Acetyllysine, log2 fold change): 0.2432
Log2(fold changes) Aminoadipic acid (metabolite Aminoadipic acid, log2 fold change): 0.0000
Log2(fold changes) CDP (metabolite CDP, log2 fold change): -0.2924
Log2(fold changes) CDP-choline (metabolite CDP-choline, log2 fold change): 0.0000
Log2(fold changes) CDP-ethanolamine (metabolite CDP-ethanolamine, log2 fold change): 0.1904
Log2(fold change) of CMP (metabolite CMP): -0.0276
Log2(fold change) of CTP (metabolite CTP): 0.0362
Log2(fold changes) Citraconic acid (metabolite Citraconic acid, log2 fold change): 0.0302
Log2(fold change) of D-glucarate (metabolite D-glucarate): 0.4691
Log2(fold change) of D-gluconate (metabolite D-gluconate): 0.0000
Log2(fold change) of D-glucosamine-1/6-phosphate (metabolite D-glucosamine-1/6-phosphate): 0.0000
Log2(fold change) of D-sedoheptulose-1/7-phosphate (metabolite D-sedoheptulose-1/7-phosphate): -0.0036
Log2(fold change) of DL-Pipecolic Acid (metabolite DL-Pipecolic Acid): -0.1035
Log2(fold change) of DLH (metabolite DLH): 0.0094
Log2(fold change) of DLS (metabolite DLS): 0.0686
Log2(fold change) of Decanoyl-CoA (metabolite Decanoyl-CoA): 0.0000
Log2(fold change) of EV (metabolite EV): 0.0000
Log2(fold change) of FAD (metabolite FAD): 0.0236
Log2(fold change) of FMN (metabolite FMN): 0.1126
Log2(fold change) of G3P/DHAP (metabolite G3P/DHAP): 0.0000
Log2(fold change) of GDP (metabolite GDP): -0.2435
Log2(fold change) GMP (metabolite GMP): -0.0369
Log2(fold change) GTP (metabolite GTP): 0.0612
Log2(fold change) HVDD (metabolite HVDD): 0.0000
Log2(fold change) Hexose (metabolite Hexose): 0.9215
Log2(fold change) Hydroxyisocaproic acid (metabolite Hydroxyisocaproic acid): 0.0000
Log2(fold change) IDP (metabolite IDP): 0.0000
Log2(fold change) IMP (metabolite IMP): -0.0158
Log2(fold change) Inositol (metabolite Inositol): 0.0000
Log2(fold change) Isopentyl-PP (metabolite Isopentyl-PP): 0.0768
Log2(fold change) L-arginino-succinate (metabolite L-arginino-succinate): 0.0000
Log2(fold change) LD (metabolite LD): 0.1184
Log2(fold change) Myristoyl/tetradecanoyl-CoA (metabolite Myristoyl/tetradecanoyl-CoA): 0.0000
Log2(fold change) N-Acetyl-L-alanine (metabolite N-Acetyl-L-alanine): -0.1094
Log2(fold change) N-acetyl-L-ornithine (metabolite N-acetyl-L-ornithine): 0.3046
Log2(fold change) N-acetyl-glucosamine-1/6-phosphate (metabolite N-acetyl-glucosamine-1/6-phosphate): -0.0561
Log2(fold change) N-acetyl-glutamate (metabolite N-acetyl-glutamate): 0.1101
Log2(fold change) N-acetyl-glutamine (metabolite N-acetyl-glutamine): 0.0004
Log2(fold change) N-carbamoyl-L-aspartate (metabolite N-carbamoyl-L-aspartate): 0.0860
Log2(fold change) NAD+ (metabolite NAD+): 0.0993
Log2(fold change) NADH (metabolite NADH): 0.0000
Log2(fold change) NADP+ (metabolite NADP+): -0.0805
Log2(fold change) NADPH (metabolite NADPH): 0.9289
Log2(fold change) O-acetyl-L-serine (metabolite O-acetyl-L-serine): 0.0000
Log2(fold change) Octoluse 8/1P (metabolite Octoluse 8/1P): 0.1026
Log2(fold change) Octoluse Bisphosphate (metabolite Octoluse Bisphosphate): 0.0231
Log2(fold change) PD (metabolite PD): 0.1011
Log2(fold change) PE (metabolite PE): 0.0655
Log2(fold change) PEE (metabolite PEE): 0.0431
Log2(fold change) PEEK (metabolite PEEK): 0.3448
Log2(fold change) PVNF (metabolite PVNF): 0.0000
Log2(fold change) Pyroglutamic acid (metabolite Pyroglutamic acid): 0.1702
Log2(fold change) Pyrophosphate (metabolite Pyrophosphate): 0.0000
Log2(fold change) Ribose-5-phosphate (metabolite Ribose-5-phosphate): 0.0000
Log2(fold change) S-adenosyl-L-homocysteine (metabolite S-adenosyl-L-homocysteine): 0.0736
Log2(fold change) S-adenosyl-L-methioninamine (metabolite S-adenosyl-L-methioninamine): 0.0000
Log2(fold change) S-adenosyl-L-methionine (metabolite S-adenosyl-L-methionine): 0.0000
Log2(fold change) S-methyl-5'-thioadenosine (metabolite S-methyl-5'-thioadenosine): 0.0000
Log2(fold change) SD (metabolite SD): 0.1281
Log2(fold change) SDL (metabolite SDL): 0.2089
Log2(fold change) SID (metabolite SID): 0.0000
Log2(fold change) Sedoheptulose bisphosphate (metabolite Sedoheptulose bisphosphate): 0.0573
Log2(fold change) Thiamine pyrophosphate (metabolite Thiamine pyrophosphate): 0.0000
Log2(fold changes) UDP-D-glucose (metabolite UDP-D-glucose, log2 fold change): 0.0465
Log2(fold changes) UDP-D-glucuronate (metabolite UDP-D-glucuronate, log2 fold change): 0.0272
Log2(fold changes) UDP-N-acetyl-glucosamine (metabolite UDP-N-acetyl-glucosamine, log2 fold change): 0.0319
Log2(fold changes) UDP (metabolite UDP, log2 fold change): -0.2525
Log2(fold changes) UMP (metabolite UMP, log2 fold change): -0.0522
Log2(fold changes) UTP (metabolite UTP, log2 fold change): 0.1015
Log2(fold changes) VD (metabolite VD, log2 fold change): 0.1916
Log2(fold changes) Xanthurenic acid (metabolite Xanthurenic acid, log2 fold change): 0.0000
Log2(fold changes) a-ketoglutarate (metabolite a-ketoglutarate, log2 fold change): -0.2164
Log2(fold changes) acetyl-CoA (metabolite acetyl-CoA, log2 fold change): 0.0673
Log2(fold changes) acetyl-aspartate (metabolite acetyl-aspartate, log2 fold change): -0.0096
Log2(fold changes) acetylphosphate (metabolite acetylphosphate, log2 fold change): 0.0000
Log2(fold changes) aconitate (metabolite aconitate, log2 fold change): 0.0000
Log2(fold changes) adenine (metabolite adenine, log2 fold change): 0.0000
Log2(fold changes) adenosine 5'-phosphosulfate (metabolite adenosine 5'-phosphosulfate, log2 fold change): -0.1961
